Data taken from patent publication US10370366B2 (Flatley Discovery Lab, LLC, priority 2013, dated 2019).

Target: T1, human F508del CFTR (Homo sapiens, UniProt P13569, DEL508-508)
T1 construct: expressed in transfected cells; host or cells: Fisher Rat Thyroid (FRT) cells
Experiment: CFTR-YFP High Throughput Assay
Type: cell-based
Conditions: FRT cells expressing human F508del CFTR and YFP; for Emax: EMax normalized to the positive control, read-out: % Efficacy
Experimental: Assays for Detecting and Measuring the Effect of Compounds on F508del-CFTR Channels CFTR-YFP High Throughput Assay-CFTR Corrector Protocol:
This protocol is designed to selectively screen small molecule compounds for F508del CFTR corrector activities in the HTS YFP (yellow fluorescent protein) flux assay. In this protocol, the cells are incubated with testing compounds for 24 hours, washed with PBS, stimulated with forskolin and a standard potentiator, and fluorescence in each plate well is measured kinetically read on a 384-well HTS plate reader, such as the Hamamatsu FDSS-6000.
YFP fluorescence intensity values are acquired at high speed before and after iodide buffer is injected to the assay cells. Iodide enters the cells via active CFTR channels in the plasma membrane, and quenches the YFP fluorescence. The rate of fluorescence quenching is proportionate to the total CFTR activity in the cell membrane. F508del CFTR correctors increase the number of CFTR molecules in the testing cell plasma membrane, and thereby accelerate YFP quenching.
This method was initially developed for bench top plate readers (Galietta et al., 2001), and was adapted to the HTS format (Sui et al. Assay Drug Dev. Technol. 2010).
Fisher Rat Thyroid (FRT) cells stably expressing both human F508del CFTR and a halide-sensitive yellow fluorescent protein (YFP-H148Q/I152L 25,22) (Galietta et al. Am. J. Physiol Cell Physiol 281(5), C1734, 2001) were cultured on plastic surface in Coon's modified Ham's F12 medium supplemented with FBS 10%, L-glutamine 2 mM, penicillin 100 U/ml, and streptomycin 100 µg/ml. G418 (0.75-1.0 mg/ml) and zeocin (3.2 ug/ml) were used for selection of FRT cells expressing F508del CFTR and YFP. For primary screening, FRT cells were plated into 384-well black wall, transparent bottom microtiter plates (Costar; Corning Inc.) at a cell density of 20,000-40,000 per well. Test compound was applied to the cells at varying concentrations ranging from 2 nM-40 μM in either a 2-fold or 3-fold dilution series. Cells were incubated in a cell culture incubator at 37° C. with 5% CO2 for 24-26 h. Assay plates were washed with DPBS media (Thermo, cat# SH30028.02) to remove unbound cells and compound. Stimulation media (25 μL) containing 20 μM Forskolin & 30 μM P3 [6-(Ethyl-phenyl-sulfonyl)-4-oxo-1,4-dihydro-quinoline-3-carboxylic acid 2-methoxy-benzylamide] in Hams F-12 coon's modified media was added to the plate wells and incubated at room temperature for 60-120 min. […] (10 mM HEPES, 1 mM MgCl2, 3 mM KCl, 1 mM CaCl2, 150 mM NaI) was then added and fluorescence quench curves (Excitation 500 nm/Emission 540 nm; exposure 136 ms) were immediately recorded on an FDSS-6000 plate reader (Hamamatsu). Quench rates were derived from least squares fitting of the data as described by Sui et al (2010).
CFTR-YFP High Throughput Assay-CFTR Potentiator Protocol:
This protocol is designed to selectively screen small molecule compounds for F508del CFTR potentiator activities in the HTS YFP flux assay. Such compounds act acutely to stimulate CFTR already expressed on the membrane surface. In this protocol, the cells are incubated at 27° C. for 24 hours to homogeneously boost F508del CFTR expression in the cell membrane (low temperature correction), washed with PBS, treated with test compound, and CFTR activity is stimulated with forskolin for 1-2 hr. Measurement of ion flux is initiated by addition of iodide-containing buffer, and YFP quenching is kinetically recorded using a 384-well HTS plate reader, such as the Hamamatsu FDSS-6000.
YFP fluorescence intensity values are acquired at high speed over a 1 min time course before and after iodide buffer is injected to the assay cells. Iodide enters the cells via active CFTR channels in the plasma membrane, and quenches the YFP fluorescence. The rate of fluorescence quenching is proportionate to total CFTR activity in the cell membrane. […]

T1 sequence (P13569 with tags, fused parts or gaps DEL508-508): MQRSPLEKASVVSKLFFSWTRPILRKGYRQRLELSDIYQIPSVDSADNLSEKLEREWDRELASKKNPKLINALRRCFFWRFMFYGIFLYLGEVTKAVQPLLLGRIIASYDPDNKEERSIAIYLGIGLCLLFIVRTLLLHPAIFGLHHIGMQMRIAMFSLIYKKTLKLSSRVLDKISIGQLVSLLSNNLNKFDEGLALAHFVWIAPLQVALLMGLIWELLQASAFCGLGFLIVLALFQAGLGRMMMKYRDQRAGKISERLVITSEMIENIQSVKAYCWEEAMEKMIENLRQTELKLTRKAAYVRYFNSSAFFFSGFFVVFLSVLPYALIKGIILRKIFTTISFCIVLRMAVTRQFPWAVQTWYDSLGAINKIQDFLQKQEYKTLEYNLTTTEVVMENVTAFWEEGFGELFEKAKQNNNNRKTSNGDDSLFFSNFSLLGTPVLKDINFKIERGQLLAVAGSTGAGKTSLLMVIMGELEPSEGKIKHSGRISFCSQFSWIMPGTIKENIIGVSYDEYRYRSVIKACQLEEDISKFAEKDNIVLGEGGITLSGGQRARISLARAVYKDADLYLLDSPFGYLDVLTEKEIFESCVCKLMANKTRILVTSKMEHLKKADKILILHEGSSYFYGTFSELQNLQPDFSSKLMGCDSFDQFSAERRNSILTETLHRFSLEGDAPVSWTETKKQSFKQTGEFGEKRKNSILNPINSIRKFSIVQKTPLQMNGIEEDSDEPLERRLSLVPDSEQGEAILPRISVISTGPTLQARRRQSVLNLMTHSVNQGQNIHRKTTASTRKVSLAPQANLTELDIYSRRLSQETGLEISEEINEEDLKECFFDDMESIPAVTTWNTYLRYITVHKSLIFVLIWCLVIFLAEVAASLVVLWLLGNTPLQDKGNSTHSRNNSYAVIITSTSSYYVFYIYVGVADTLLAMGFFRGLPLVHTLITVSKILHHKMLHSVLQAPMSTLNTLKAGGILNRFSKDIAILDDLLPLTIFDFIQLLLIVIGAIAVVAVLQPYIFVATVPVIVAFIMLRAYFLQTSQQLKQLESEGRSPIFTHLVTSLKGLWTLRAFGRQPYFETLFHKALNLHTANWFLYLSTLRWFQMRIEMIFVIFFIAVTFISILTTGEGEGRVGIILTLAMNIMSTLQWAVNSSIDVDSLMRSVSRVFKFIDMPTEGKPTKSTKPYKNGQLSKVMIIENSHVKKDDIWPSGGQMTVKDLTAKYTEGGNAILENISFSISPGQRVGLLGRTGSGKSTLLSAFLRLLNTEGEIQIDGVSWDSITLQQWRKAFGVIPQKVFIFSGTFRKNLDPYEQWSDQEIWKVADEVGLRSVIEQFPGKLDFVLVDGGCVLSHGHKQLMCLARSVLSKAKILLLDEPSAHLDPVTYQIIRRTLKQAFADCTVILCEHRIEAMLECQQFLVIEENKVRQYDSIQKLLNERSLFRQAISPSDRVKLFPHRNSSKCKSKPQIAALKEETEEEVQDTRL

| Emax [%] | EC50 [µM] | Structure (SMILES) |
| --- | --- | --- |
| 30 to 80 | 10 to 20 | CCN(C(=O)Cn1ncc2c(c1=O)c1ccccc1n2CC#N)c1ccc2c(c1)OC(F)(F)O2 [Example 139, 2-(5-(cyanomethyl)-1-oxo-1H-pyridazino[4,5-b]indol-2(5H)-yl)-N-(2,2-difluorobenzo[d][1,3]dioxol-5-yl)-N-ethylacetamide] |
| 30 to 80 | 10 to 20 | CCN(C(=O)Cn1nc(-c2ccc(S(N)(=O)=O)cc2)c2ccc(OC)cc2c1=O)c1ccc2nc(C)oc2c1 [Example 80, N-ethyl-2-(7-methoxy-1-oxo-4-(4-sulfamoylphenyl)phthalazin-2(1H)-yl)-N-(2-methylbenzo[d]oxazol-6-yl)acetamide] |
| 30 to 80 |  | COc1ccc2c(-c3ccc(S(N)(=O)=O)cc3)nn(CC(=O)N(c3ccc4c(c3)OC(F)(F)O4)C3CC3)c(=O)c2c1 [Example 78, N-cyclopropyl-N-(2,2-difluorobenzo[d][1,3]dioxol-5-yl)-2-(7-methoxy-1-oxo-4-(4-sulfamoylphenyl)phthalazin-2(1H)-yl)acetamide] |
| 30 to 80 | > 20 | CCN(C(=O)c1nn(-c2ccc(C)cc2)c(=O)c2c1c1ccc(OC)cc1n2C)c1ccccc1 [Example 188, N-ethyl-7-methoxy-5-methyl-4-oxo-N-phenyl-3-(p-tolyl)-4,5-dihydro-3H-pyridazino[4,5-b]indole-1-carboxamide] |
| 30 to 80 |  | CCN(C(=O)Cn1ncc2c(c1=O)c1ccccc1n2CCOC)c1ccc2c(c1)OC(F)(F)O2 [Example 132, N-(2,2-difluorobenzo[d][1,3]dioxol-5-yl)-N-ethyl-2-(5-(2-methoxyethyl)-1-oxo-1H-pyridazino[4,5-b]indol-2(5H)-yl)acetamide] |
| > 80 | < 10 | CCOC(=O)c1ccc2c(-c3cccc(Cl)c3)nn(CC(=O)N(C)c3ccc4nc(C)oc4c3)c(=O)c2c1 [Example 65, ethyl 1-(3-chlorophenyl)-3-(2-(methyl(2-methylbenzo[d]oxazol-6-yl)amino)-2-oxoethyl)-4-oxo-3,4-dihydrophthalazine-6-carboxylate] |
| 30 to 80 |  | CCN(C(=O)Cn1nc(Cc2cccnc2)c2c(OCCOC)cccc2c1=O)c1ccc2c(c1)OC(F)(F)O2 [Example 62, N-(2,2-difluorobenzo[d][1,3]dioxol-5-yl)-N-ethyl-2-(5-(2-methoxyethoxy)-1-oxo-4-(pyridin-3-ylmethyl)phthalazin-2(1H)-yl)acetamide] |
| 30 to 80 |  | CCc1ccc(N(CC)C(=O)Cn2nc(-c3ccncc3)c3ccccc3c2=O)cc1 [Example 4, N-ethyl-N-(4-ethylphenyl)-2-(1-oxo-4-(pyridin-4-yl)phthalazin-2(1H)-yl)acetamide] |
| 30 to 80 | < 10 | CC(C)N(C(=O)c1nn(Cc2ccccc2)c(=O)c2c1c1ccccc1n2C)c1ccccc1 [Example 212, 3-benzyl-N-isopropyl-5-methyl-4-oxo-N-phenyl-4,5-dihydro-3H-pyridazino[4,5-b]indole-1-carboxamide] |
| 30 to 80 | > 20 | CCc1ccc(N(CC)C(=O)Cn2nc(Cc3cccnc3)c3ccc(Cl)cc3c2=O)cc1 [Example 39, 2-(7-chloro-1-oxo-4-(pyridin-3-ylmethyl)phthalazin-2(1H)-yl)-N-ethyl-N-(4-ethylphenyl)acetamide] |
| 30 to 80 | < 10 | CCN(CC)C(=O)c1nn(CC(O)COCc2ccccc2)c(=O)c2c1c1c(C)cccc1n2C (stereo not shown) [Example 232, 3-(3-(benzyloxy)-2-hydroxypropyl)-N,N-diethyl-5,9-dimethyl-4-oxo-4,5-dihydro-3H-pyridazino[4,5-b]indole-1-carboxamide] |
| 30 to 80 | < 10 | CCN(C(=O)c1nn(-c2ccc(C)cc2)c(=O)c2c1c1ccc(Cl)cc1n2C)c1ccccc1 [Example 166, 7-chloro-N-ethyl-5-methyl-4-oxo-N-phenyl-3-(p-tolyl)-4,5-dihydro-3H-pyridazino[4,5-b]indole-1-carboxamide] |
| > 80 | > 20 | CCN(C(=O)c1nn(-c2ccc(C)cc2)c(=O)c2c1c1c(C)cccc1n2C)c1ccccc1 [Example 196, N-ethyl-5,9-dimethyl-4-oxo-N-phenyl-3-(p-tolyl)-4,5-dihydro-3H-pyridazino[4,5-b]indole-1-carboxamide] |
| 30 to 80 | < 10 | CCc1ccc(N(CC)C(=O)Cn2nc(-c3ccc(S(C)(=O)=O)cc3)c3ccccc3c2=O)cc1 [Example 16, N-ethyl-N-(4-ethylphenyl)-2-(4-(4-(methylsulfanoyl)phenyl)-1-oxophthalazin-2(1H)-yl)acetamide] |
| 30 to 80 |  | CCN(C(=O)Cn1ncc2c(c1=O)c1ccccc1n2Cc1ccccc1C#N)c1ccc2c(c1)OC(F)(F)O2 [Example 141, 2-(5-(2-cyanobenzyl)-1-oxo-1H-pyridazino[4,5-b]indol-2(5H)-yl)-N-(2,2-difluorobenzo[d][1,3]dioxol-5-yl)-N-ethylacetamide] |
| 30 to 80 |  | CCN(C(=O)Cn1ncc2c(c1=O)c1ccccc1n2CCC(=O)OC)c1ccc2c(c1)OC(F)(F)O2 [Example 134, methyl 3-(2-(2-((2,2-difluorobenzo[d][1,3]dioxol-5-yl)(ethyl)amino)-2-oxoethyl)-1-oxo-1H-pyridazino[4,5-b]indol-5(2H)-yl)propanoate] |
| 30 to 80 | < 10 | CCN(C(=O)c1nn(C[C@@H](O)CO)c(=O)c2c1c1ccccc1n2C)c1ccccc1 [Example 229, (R)-3-(2,3-dihydroxypropyl)-N-ethyl-5-methyl-4-oxo-N-phenyl-4,5-dihydro-3H-pyridazino[4,5-b]indole-1-carboxamide] |
| 30 to 80 |  | CCc1ccc(N(CC)C(=O)Cn2nc(Cc3cccnc3)c3cc(OC)ccc3c2=O)cc1 [Example 36, N-ethyl-N-(4-ethylphenyl)-2-(6-methoxy-1-oxo-4-(pyridin-3-ylmethyl)phthalazin-2(1H)-yl)acetamide] |
| 30 to 80 |  | CCc1ccc(N(CC)C(=O)Cn2nc(Cc3cccnc3)c3cc(Cl)ccc3c2=O)cc1 [Example 40, 2-(6-chloro-1-oxo-4-(pyridin-3-ylmethyl)phthalazin-2(1H)-yl)-N-ethyl-N-(4-ethylphenyl)acetamide] |
| 30 to 80 |  | CCN(C(=O)Cn1nc(-c2ccc(C(N)=O)cc2)c2ccc(OC)cc2c1=O)c1ccc2nc(C)oc2c1 [Example 84, 4-(3-(2-(ethyl(2-methylbenzo[d]oxazol-6-yl)amino)-2-oxoethyl)-6-methoxy-4-oxo-3,4-dihydrophthalazin-1-yl)benzamide] |
| 30 to 80 | 10 to 20 | CCc1ccc(N(CC)C(=O)Cn2nc(-c3ccc(S(N)(=O)=O)cc3)c3ccccc3c2=O)cc1 [Example 13, N-ethyl-N-(4-ethylphenyl)-2-(1-oxo-4-(4-sulfamoylphenyl)phthalazin-2(1H)-yl)acetamide] |
| 10 to 30 | < 10 | CC(C)n1nc(C(=O)N2CCCCC2)c2c3ccccc3n(C)c2c1=O [Example 208, 3-isopropyl-5-methyl-1-(piperidine-1-carbonyl)-3,5-dihydro-4H-pyridazino[4,5-b]indol-4-one] |
| 30 to 80 | < 10 | COc1ccc(C2(C(=O)Cn3nc(-c4cccc(Cl)c4)c4ccc(OC)cc4c3=O)CC2)cc1 [Example 251, 4-(3-chlorophenyl)-7-methoxy-2-(2-(1-(4-methoxyphenyl)cyclopropyl)-2-oxoethyl)phthalazin-1(2H)-one] |
